# Test results: US20250114460A1, “NOVEL PLK1 DEGRADATION INDUCING COMPOUND” (UPPTHERA, INC., priority 2021, published 2025)
# pIC50: −log10 of the molar value.
# Key:
# Type in all cases: cell-based
# PLK1 = target: T1, PLK1 (Homo sapiens, UniProt P53350); assay: Luciferase assay for PLK1 in HeLa LgBit (Plk1-HiBit KI) cell line; conditions: 300 nM compound, luminescence after 9 hours
# T1 construct: endogenous in cells; host or cells: HeLa LgBit (Plk1-HiBit KI): HeLa stably expressing LgBit, with a CRISPR/Cas9 knock-in of HiBit at the endogenous PLK1 locus
# In short: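 HeLa cells stably expressing LgBit, with HiBit knocked in at the C-terminus of endogenous Plk1, released from a 24 h 2 mM thymidine block and grown 18 h. Endurazine added, then compound at 300 nM; luminescence tracked in real time, expressed as ratio to DMSO.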
# NCI-H526 cell line = assay: Cell viability assay for H526 cell (EZ-Cytox); conditions: Homo sapiens, NCI-H526, 120 h; H526 cells, 5 days, 3000 nM to 0.46 nM
# Protocol: (1) Culture of NCI-H526 Cell Line
# (2) Treatment of Compounds of the Present Invention and Method of Cell Viability Assay
# After treating the compound to each well to make the total volume of 200 μL, it was cultured in a CO2 incubator (Thermo Fisher Science, Cat. No. 4111) for 5 days.
# The absorbance of the completely cultured sample was measured by setting the wavelength of a plate reader (BMG Labtech, CLARIOstar Plus) to […], and was measured after shaking for 3 minutes in a plate reader before measurement.
# In Table 3, Activity represents IC50 value of each Exemplary Compound treatment group to H526 cell line (A: <30 nM, B: <50 nM, C: <100 nM, D: <200 nM, E: <400 nM).
# MRC-5 cell line = assay: Cell viability assay for MRC-5 cell line (EZ-Cytox); conditions: for pIC50: Homo sapiens, MRC5, 120 h, MRC-5 normal cell line, 5 days, 10000 nM to 1.52 nM, N.D. = no cytotoxicity until 10 μM, read-out: Activity: IC50 value of Exemplary Compound to MRC-5 cell line
# Protocol: 4. Cell Viability Assay for MRC-5 Cell Line
# (1) Culture of MRC-5 Cell Line
# Passage of cultured cells was maintained within P15.
# (2) Treatment of Compounds of the Present Invention
# Then, it was cultured in 37° C.
# (3) Cytotoxicity Experiment
# CO2 incubator for 4 hours.
# T1 sequence (P53350 whole entry): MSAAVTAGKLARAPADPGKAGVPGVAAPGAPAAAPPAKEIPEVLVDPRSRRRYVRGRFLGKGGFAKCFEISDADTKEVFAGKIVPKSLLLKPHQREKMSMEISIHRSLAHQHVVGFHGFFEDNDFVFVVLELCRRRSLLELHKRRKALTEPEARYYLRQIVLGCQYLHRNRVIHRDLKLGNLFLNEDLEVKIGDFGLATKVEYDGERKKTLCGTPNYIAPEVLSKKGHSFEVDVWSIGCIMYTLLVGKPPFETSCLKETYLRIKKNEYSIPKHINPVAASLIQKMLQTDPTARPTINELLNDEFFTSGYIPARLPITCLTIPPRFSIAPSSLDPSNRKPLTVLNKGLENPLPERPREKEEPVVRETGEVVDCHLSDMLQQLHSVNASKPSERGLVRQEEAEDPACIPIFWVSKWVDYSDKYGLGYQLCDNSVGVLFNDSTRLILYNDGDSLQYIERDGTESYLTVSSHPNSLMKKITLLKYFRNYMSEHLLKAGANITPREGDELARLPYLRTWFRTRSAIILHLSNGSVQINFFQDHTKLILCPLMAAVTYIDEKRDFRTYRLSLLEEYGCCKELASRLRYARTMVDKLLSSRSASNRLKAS
SMILES,Activity: ratio of the luminescense value of each Exemplary Compound treatment group to DMSO treatment group (PLK1),pIC50 (NCI-H526 cell line),pIC50 (MRC-5 cell line),"cytotoxicity in normal cell line (MRC-5 cell line; MRC-5, in words)"
"COc1cc(C(=O)NN2CCC(N3CCN(c4cccc5c4C(=O)N(C4CCC(=O)NC4=O)C5=O)CC3)C2)ccc1Nc1ncc2c(n1)N(C(C)C)CC(F)(F)C(=O)N2C (stereo not drawn) [Compound 155, 4-((7,7-difluoro-9-isopropyl-5-methyl-6-oxo-6,7,8,9-tetrahydro-5H-pyrimido[4,5-b][1,4]diazepin-2-yl)amino)-N-(3-(4-(2-(2,6-dioxopiperidin-3-yl)-1,3-dioxoisoindolin-4-yl)piperazin-1-yl)pyrrolidin-1-yl)-3-methoxybenzamide]",+ (+<0.7),> 7.00,< 5.00,
"COc1cc(C(=O)N[C@H]2CC[C@H](N3CCN(CCCNc4cccc5c4C(=O)N(C4CCC(=O)NC4=O)C5=O)CC3)CC2)c(F)cc1Nc1ncc2c(n1)N(C1CCCC1)CC(F)(F)C(=O)N2C (stereo partly drawn) [Compound 197, 4-((9-cyclopentyl-7,7-difluoro-5-methyl-6-oxo-6,7,8,9-tetrahydro-5H-pyrimido[4,5-b][1,4]diazepin-2-yl)amino)-N-((1r,4r)-4-(4-(3-((2-(2,6-dioxopiperidin-3-yl)-1,3-dioxoisoindolin-4-yl)amino)propyl)piperazin-1-yl)cyclohexyl)-2-fluoro-5-methoxybenzamide]",++ (++<0.6),> 7.30,4.74,
"COc1cc(C(=O)N2CCN(CCCCN3CCN(c4ccc5c(c4)C(=O)N(C4CCC(=O)NC4=O)C5=O)CC3)CC2)ccc1Nc1ncc2c(n1)N(C1CCCC1)CC(F)(F)C(=O)N2C (stereo not drawn) [Compound 91, 5-(4-(4-(4-(4-((9-cyclopentyl-7,7-difluoro-5-methyl-6-oxo-6,7,8,9-tetrahydro-5H-pyrimido[4,5-b][1,4]diazepin-2-yl)amino)-3-methoxybenzoyl)piperazin-1-yl)butyl)piperazin-1-yl)-2-(2,6-dioxopiperidin-3-yl)isoindoline-1,3-dione]",++ (++<0.6),> 6.40,< 5.00,
"COc1cc(C(=O)N[C@H]2CC[C@H](N(C)CC3CCN(c4cccc5c4C(=O)N(C4CCC(=O)NC4=O)C5=O)CC3)CC2)ccc1Nc1ncc2c(n1)N(C(C)C)CC(F)(F)C(=O)N2C (stereo partly drawn) [Compound 152, 4-((7,7-difluoro-9-isopropyl-5-methyl-6-oxo-6,7,8,9-tetrahydro-5H-pyrimido[4,5-b][1,4]diazepin-2-yl)amino)-N-((1r,4r)-4-(((1-(2-(2,6-dioxopiperidin-3-yl)-1,3-dioxoisoindolin-4-yl)piperidin-4-yl)methyl)(methyl)amino)cyclohexyl)-3-methoxybenzamide]",++ (++<0.6),> 7.30,5.21,
"COc1cc(C(=O)NN2CCC(N3CC4(CCN(c5ccc6c(c5)C(=O)N(C5CCC(=O)NC5=O)C6=O)CC4)C3)CC2)ccc1Nc1ncc2c(n1)N(C1CCCC1)CC(F)(F)C(=O)N2C (stereo not drawn) [Compound 212, 4-((9-cyclopentyl-7,7-difluoro-5-methyl-6-oxo-6,7,8,9-tetrahydro-5H-pyrimido[4,5-b][1,4]diazepin-2-yl)amino)-N-(4-(7-(2-(2,6-dioxopiperidin-3-yl)-1,3-dioxoisoindolin-5-yl)-2,7-diazaspiro[3.5]nonan-2-yl)piperidin-1-yl)-3-methoxybenzamide]",++ (++<0.6),> 7.52,< 5.00,
"COc1cc(C(=O)N2CCC(N3CCC(C#Cc4ccc5c(c4)C(=O)N(C4CCC(=O)NC4=O)C5=O)CC3)CC2)ccc1Nc1ncc2c(n1)N(C1CCCC1)CC(F)(F)C(=O)N2C (stereo not drawn) [Compound 182, 5-((1′-(4-((9-cyclopentyl-7,7-difluoro-5-methyl-6-oxo-6,7,8,9-tetrahydro-5H-pyrimido[4,5-b][1,4]diazepin-2-yl)amino)-3-methoxybenzoyl)-[1,4′-piperidin]-4-yl)ethynyl)-2-(2,6-dioxopiperidin-3-yl)isoindoline-1,3-dione]",++ (++<0.6),,5.01,
"CC[C@@H]1C(=O)N(C)c2cnc(Nc3ccc(C(=O)NCCOCCOCCNc4cccc5c4C(=O)N(C4CCC(=O)NC4=O)C5=O)cc3OC)nc2N1C1CCCC1 (stereo partly drawn) [Comparative Compound 1, reference compound]",,,,exhibited a high level of cytotoxicity in normal cell line
"CN1C(=O)C(F)(F)CN(C2CCCC2)c2nc(Nc3ccc(C(=O)NC4CCN(C(=O)CCCNc5cccc6c5C(=O)N(C5CCC(=O)NC5=O)C6=O)CC4)cc3OC(F)(F)F)ncc21 (stereo not drawn) [Compound 28, 4-((9-cyclopentyl-7,7-difluoro-5-methyl-6-oxo-6,7,8,9-tetrahydro-5H-pyrimido[4,5-b][1,4]diazepin-2-yl)amino)-N-(1-(4-((2-(2,6-dioxopiperidin-3-yl)-1,3-dioxoisoindolin-4-yl)amino)butanoyl)piperidin-4-yl)-3-(trifluoromethoxy)benzamide]",++ (++<0.6),,< 5.00,

# Further lines, with some results ahead:
Activity: ratio of the luminescense value of each Exemplary Compound treatment group to DMSO treatment group (PLK1),SMILES,pIC50 (NCI-H526 cell line),pIC50 (MRC-5 cell line),"cytotoxicity in normal cell line (MRC-5 cell line; MRC-5, in words)"
++ (++<0.6),"COc1cc(C(=O)N[C@H]2CCN(C(=O)COc3cccc4c3C(=O)N(C3CCC(=O)NC3=O)C4=O)C2)ccc1Nc1ncc2c(n1)N(C1CCCC1)CC(F)(F)C(=O)N2C (stereo partly drawn) [Compound 40, 4-((9-cyclopentyl-7,7-difluoro-5-methyl-6-oxo-6,7,8,9-tetrahydro-5H-pyrimido[4,5-b][1,4]diazepin-2-yl)amino)-N-((3S)-1-(2-((2-(2,6-dioxopiperidin-3-yl)-1,3-dioxoisoindolin-4-yl)oxy)acetyl)pyrrolidin-3-yl)-3-methoxybenzamide]",> 6.70,< 5.00,
++ (++<0.6),"COc1cc(C(=O)NC2CCN(CCOc3cccc4c3C(=O)N(C3CCC(=O)NC3=O)C4=O)CC2)ccc1Nc1ncc2c(n1)N(C1CCCC1)CC(F)(F)C(=O)N2C (stereo not drawn) [Compound 5, 4-((9-cyclopentyl-7,7-difluoro-5-methyl-6-oxo-6,7,8,9-tetrahydro-5H-pyrimido[4,5-b][1,4]diazepin-2-yl)amino)-N-(1-(2-((2-(2,6-dioxopiperidin-3-yl)-1,3-dioxoisoindolin-4-yl)oxy)ethyl)piperidin-4-yl)-3-methoxybenzamide]",> 6.40,4.70,
++ (++<0.6),"COc1cc(C(=O)N[C@H]2CC[C@@H](N(C)CCN3CCN(c4cccc5c4C(=O)N(C4CCC(=O)NC4=O)C5=O)CC3)CC2)ccc1Nc1ncc2c(n1)N(C1CCCC1)CC(F)(F)C(=O)N2C (stereo partly drawn) [Compound 128, 4-((9-cyclopentyl-7,7-difluoro-5-methyl-6-oxo-6,7,8,9-tetrahydro-5H-pyrimido[4,5-b][1,4]diazepin-2-yl)amino)-N-((1s,4s)-4-((2-(4-(2-(2,6-dioxopiperidin-3-yl)-1,3-dioxoisoindolin-4-yl)piperazin-1-yl)ethyl)(methyl)amino)cyclohexyl)-3-methoxybenzamide]",> 7.30,4.73,
++ (++<0.6),"COc1cc(C(=O)N[C@H]2CCN(CCOc3cccc4c3C(=O)N(C3CCC(=O)NC3=O)C4=O)C2)ccc1Nc1ncc2c(n1)N(C1CCCC1)CC(F)(F)C(=O)N2C (stereo partly drawn) [Compound 9, 4-((9-cyclopentyl-7,7-difluoro-5-methyl-6-oxo-6,7,8,9-tetrahydro-5H-pyrimido[4,5-b][1,4]diazepin-2-yl)amino)-N-((3S)-1-(2-((2-(2,6-dioxopiperidin-3-yl)-1,3-dioxoisoindolin-4-yl)oxy)ethyl)pyrrolidin-3-yl)-3-methoxybenzamide]",,< 5.00,
+++ (+++: <0.3),"COc1cc(C(=O)NCC2CCN(CC3CCN(c4cccc5c4C(=O)N(C4CCC(=O)NC4=O)C5=O)CC3)CC2)ccc1Nc1ncc2c(n1)N(C1CCCC1)CC(F)(F)C(=O)N2C (stereo not drawn) [Compound 53, 4-((9-cyclopentyl-7,7-difluoro-5-methyl-6-oxo-6,7,8,9-tetrahydro-5H-pyrimido[4,5-b][1,4]diazepin-2-yl)amino)-N-((1-((1-(2-(2,6-dioxopiperidin-3-yl)-1,3-dioxoisoindolin-4-yl)piperidin-4-yl)methyl)piperidin-4-yl)methyl)-3-methoxybenzamide]",> 7.30,,
